# Data from paper PMC6471705, “Evaluation of the Enzyme Inhibitory and Antioxidant Activities of Entada spiralis Stem Bark and Isolation of the Active Constituents” (Molecules, 2019).
# Values joined by “and” are separate entries in the source; they are usually repeats but may differ in a detail not shown here. Equal entries are not always repeated. Where two headings read alike, the source gives them in different places.
# How the values were obtained:
# [1] = Dot-blot staining assay, β-carotene; conditions: 1 mg/mL, compared to ascorbic acid positive control
# Method: (§1) Rapid detection of the free radical scavenging activity of isolated compounds from active fractions of E. spiralis methanol extract was carried out using a method adapted from Sarian et al.. Three detection agents viz., DPPH^•, ABTS^•+ and β-carotene were used. Briefly, few drops of each compound were spotted on a TLC plate (1.5 × 8 cm) using capillary tube and dried for few minutes at room temperature. The plate was then carefully dipped in 0.5% DPPH^• in methanol for few seconds. The plate was allowed to dry and the colour change was observed. Yellow spots on a purple background indicate radical scavenging activity and intensity of the yellow colour is proportional to the antioxidant activity. A TLC-β-carotene assay was also conducted using 0.05% of β-carotene in chloroform. A few drops of each sample (1 mg/mL) was spotted on TLC plate an allowed to dry after which it was dipped into β-carotene solution for 20 s. The plate was dried completely under direct sunlight for 3 h. Yellow or orange spot on a white background indicates activity. The intensity of the colour is dependent on the extent of antioxidant activity of the compound. TLC ABTS^•+ test was performed by mixing 2.45 mM of potassium persulphate with 7 mM of ABTS and kept in the dark for 16 hours to generate ABTS^•+. Already spotted TLC plates were then dipped into it for 10 s and allowed to dry at room temperature. White or orange spots on a bluish green background indicates activity.
# [2] = ABTS radical scavenging assay; conditions: for IC50: Table 3, molar units; for IC50 ABTS Assay: mean ± SEM of triplicate
# Method: A method reported by Zheleva-Dimitrova et al. was adopted with slight modifications. Stock solutions of ABTS (7 mM) and potassium persulphate (2.45 mM) were prepared using distilled water. The working solution was prepared by adding 1 mL of ABTS solution to same amount of potassium persulphate solution. The reaction mixture was left overnight for 16 h to generate the intensely blue coloured ABTS^•+. 1 mL of ABTS^•+ was then added to 50 mL of MeOH and distributed (100 µL each) into a 96 microplate well containing 100 µL of serially diluted sample/ standard (7.81–125 µg/mL). Absorbance was measured at 734 nm against blank (containing sample and MeOH only). Test was conducted in triplicate. Samples were compared with trolox and ascorbic acid and percentage inhibition was calculated as follows:(2) (% ABTS inhibition)= [Ac−As/Ac] ×100 where, Ac = absorbance of ABTS^• in MeOH, As = absorbance ABTS^•+ in sample/standard.
# The radical scavenging activity was determined from the IC50 values obtained from the percentage inhibition curve against different concentrations of the sample/standard.
# [3] = Dot-blot staining assay, DPPH reagent; conditions: 1 mg/mL, compared to ascorbic acid positive control
# Method: as §1
# [4] = molecular target: T1, α-amylase (Sus scrofa, UniProt P00690); assay: In vitro α-amylase inhibitory assay (starch-iodine method); type: biochemical; conditions: mean ± SEM of triplicate
# T1 sequence (P00690 16-511): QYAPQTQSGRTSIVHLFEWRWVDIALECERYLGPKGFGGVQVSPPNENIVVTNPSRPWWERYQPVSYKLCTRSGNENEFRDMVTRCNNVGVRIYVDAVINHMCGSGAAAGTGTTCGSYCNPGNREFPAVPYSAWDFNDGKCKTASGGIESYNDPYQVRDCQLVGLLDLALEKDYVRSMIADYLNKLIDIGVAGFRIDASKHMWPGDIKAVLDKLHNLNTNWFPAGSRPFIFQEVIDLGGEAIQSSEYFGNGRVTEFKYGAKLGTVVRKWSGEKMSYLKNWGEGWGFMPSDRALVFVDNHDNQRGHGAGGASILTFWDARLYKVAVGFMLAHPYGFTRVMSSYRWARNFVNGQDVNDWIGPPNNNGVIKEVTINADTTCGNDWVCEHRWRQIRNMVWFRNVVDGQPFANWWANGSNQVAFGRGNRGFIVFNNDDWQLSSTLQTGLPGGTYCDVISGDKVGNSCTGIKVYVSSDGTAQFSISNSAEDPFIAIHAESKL
# Method: The procedure proposed by Johnson et al. was adopted and modified for a microplate-based method carried out by Xiao et al.. Briefly, 25 µL of α-amylase solution (1 U/mL in 0.2 M phosphate buffer at pH 7) was introduced into 96 well flat bottom microplates followed by addition of 25 µL of serially diluted sample/standard (7.8–1000 µg/mL) and incubated for 5 min at 37 °C followed by 25 µL of 1% starch in buffer (boiled for 15 min) and re-incubated for 45 min at 50 °C. Next was the addition of 100 µL of 1% iodine solution and 50 µL of distilled water. The microplate was tightly covered during incubation to prevent evaporative loss. […] All determinations including sample, control, and blank were conducted in triplicate under the same reaction conditions. […] Inhibitory activity was determined using the following equation:(3) (% enzyme inhibition)= 1−[Abs/Contr] ×100 where, Abs is the absorbance of the sample or standard. Contr is the absorbance of the control without enzyme.
# [5] = DPPH radical scavenging assay; conditions: for IC50: Table 3, molar units; for IC50 DPPH Assay: mean ± SEM of triplicate
# Method: Modified methods from Sulaiman et al. and Ahmed et al. were used. Briefly, 150 µL of freshly prepared DPPH^• solution (0.4 M concentration) was carefully introduced into 96 round microplate wells each. 100 µL of sample/ standard (7.81–500 µg/mL) were added. Blanks contained only methanol and DPPH^•. Ascorbic acid (dissolved in distilled water) and quercetin (dissolved in MeOH) were used as standard. The plate was left in the dark for 25 min to activate. […] Tests were conducted in triplicate and the percentage inhibition of each sample/standard was calculated using the following equation:(1) (% DPPH inhibition)= [Ac−As/Ac] ×100 where, Ac = absorbance of DPPH radical in MeOH, As = absorbance of DPPH radical in sample or standard. IC50 values obtained from graphical plot from percentage inhibition against concentration were used to define the radial scavenging activity of each sample.
# [6] = molecular target: α-glucosidase (Saccharomyces cerevisiae, UniProt P53341); assay: In vitro α-glucosidase inhibitory assay (pNPG substrate); type: biochemical
# Method: This assay used a method adapted from Johnson et al. with slight modifications employing α-glucosidase (enzyme) obtained from Saccharomyces cerevisiae (1 U/mL) dissolved in 50 mM phosphate buffer (pH 6.9). 100 µL of enzyme (in 0.1M phosphate buffer) was added into 96 microplate well containing 50 µL of sample/ standard 7.8–1000 µg/mL and incubated at 37 °C for 10 min. Next was the addition of 50 µL of the substrate, p-nitrophenyl glucopyranoside (5 mM in 0.1 phosphate buffer at pH 6.9) and re-incubated for 5 min at 37 °C. The reaction was terminated by the addition of 100 µL of 0.1 M Na2CO3 and absorbance was measured at 405 nm.
# Experiments were conducted in triplicate.
# [7] = Dot-blot staining assay, ABTS reagent; conditions: 1 mg/mL, compared to ascorbic acid positive control
# Method: as §1
# [8] = molecular target: human pancreatic amylase; conditions: cited from earlier work
# [9] = molecular target: α-glucosidase; parameters: method as in doi:10.1016/j.foodres.2014.01.029; conditions: isolated from Rhodiola crenulata root; cited from earlier work
# [10] = Table 3, molar units, read-out: IC50 α-Glucosidase (converted)
# [11] = mean ± SEM of triplicate, read-out: IC50 α-Glucosidase (converted)
# Chain of α-glucosidase (Saccharomyces cerevisiae, UniProt P53341) (P53341 whole entry): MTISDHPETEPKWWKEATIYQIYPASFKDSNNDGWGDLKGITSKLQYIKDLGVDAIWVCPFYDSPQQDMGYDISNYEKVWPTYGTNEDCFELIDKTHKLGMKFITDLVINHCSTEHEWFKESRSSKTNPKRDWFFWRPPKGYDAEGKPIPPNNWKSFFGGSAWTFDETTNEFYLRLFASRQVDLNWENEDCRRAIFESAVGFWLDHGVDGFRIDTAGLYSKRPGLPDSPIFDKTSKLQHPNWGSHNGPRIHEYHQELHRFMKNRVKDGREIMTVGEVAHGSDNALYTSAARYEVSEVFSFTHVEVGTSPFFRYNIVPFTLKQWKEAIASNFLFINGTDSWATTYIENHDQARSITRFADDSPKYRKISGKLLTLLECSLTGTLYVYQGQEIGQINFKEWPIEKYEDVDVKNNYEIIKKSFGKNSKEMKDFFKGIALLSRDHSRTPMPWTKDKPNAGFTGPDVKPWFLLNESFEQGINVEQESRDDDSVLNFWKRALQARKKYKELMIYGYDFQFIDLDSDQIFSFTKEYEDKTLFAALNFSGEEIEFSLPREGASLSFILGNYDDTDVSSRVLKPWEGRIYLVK
Compound,"Dot-blot spot intensity, β-carotene [1]",IC50 [2] [µM],IC50 ABTS Assay [2],"Dot-blot spot intensity, DPPH [3]",IC50 α-Amylase [4],IC50 [5] [µM],IC50 DPPH Assay [5],IC50 ([6]; read-out: IC50 α-Glucosidase (converted)),"Dot-blot spot intensity, ABTS [7]",IC50 DPPH Assay ([5]; listed as ascorbic acid) [µg/mL],Ki [8] [µM],"IC50 [6, 10] [µM]","IC50 [6, 11] [µM]",IC50 [9] [µM],"IC50 ([6]; IC50 α-Glucosidase, Table 3, molar units) [µM]","IC50 ([6]; IC50 α-Glucosidase, mean ± SEM of triplicate) [µM]"
"Oc1cc(O)c2c(c1)O[C@H](c1ccc(O)c(O)c1)[C@@H](O)C2 [FEQ-7, (+)-catechin]",strong intensity,6.4,1.86 ± 0.15 µg/mL,strong intensity,did not show any observable α-amylase inhibition,43,12.48 ± 1.55 µg/mL,351 µM and 350 µM,strong intensity,–,–,–,–,–,–,–
"O=C1O[C@H]([C@@H](O)CO)C(O)=C1O [Ac, ascorbic acid, reference compound]",–,95,16.74± 1.76 ^A µg/mL,–,–,140,24.67 ± 0.45 ^A µg/mL,–,–,5.38 ± 1.26,–,–,–,–,–,–
montbretin A,–,–,–,–,–,–,–,–,–,–,0.008,–,–,–,–,–
"COc1cc(O)c2c(=O)c(OC)c(-c3ccc(O)c(OC)c3)oc2c1 [FEQ-4, pachypodol]",low intensity,100,–,low intensity,–,190,66.17 ± 8.03 µg/mL,–,strong intensity,–,–,220,219,–,–,–
"Oc1cc(O)c2c(c1)O[C@H](c1ccc(O)c(O)c1)[C@H](O)C2 [FEQ-8, (−)-epicatechin]",strong intensity,3.9,1.12 ± 0.09 µg/mL,strong intensity,did not show any observable α-amylase inhibition,40,–,–,strong intensity,–,–,340,341,29.9 ± 2.2,–,–
"CCCCCCOC(=O)/C=C/c1ccc(O)c(OC)c1 [FEQ-2, (E)-hexyl 3-(4-hydroxy-3-methoxyphenyl) acrylate]",strong intensity,10,4.69 ± 1.25 µg/mL,strong intensity,did not show any observable α-amylase inhibition,50,13.79 ± 2.13 µg/mL,–,strong intensity,–,–,530,535,–,–,–
"Cc1c(C)c2c(c(C)c1O)CCC(C)(C(=O)O)O2 (stereo not drawn) [Tx, 6-hydroxy-2,5,7,8-tetramethylchroman-2-carboxylic acid, reference compound]",–,61,15.23 ± 2.15 ^A µg/mL,–,–,–,–,–,–,–,–,–,–,–,–,–
"O=c1c(O)c(-c2ccc(O)c(O)c2)oc2cc(O)cc(O)c12 [Qc, quercetin, reference compound]",–,–,–,–,–,99,29.82 ± 3.73 ^A µg/mL,–,–,–,–,–,–,–,–,–
"O=c1c(O)c(-c2ccc(O)cc2)oc2cc(O)cc(O)c12 [FEQ-3, kaempferol]",strong intensity,7,2.10 ± 0.51 µg/mL,strong intensity,–,39,11.29 ± 0.26 µg/mL,–,strong intensity,–,–,–,–,–,–,–
"O=C(O)c1cc(O)c(O)c(O)c1 [FEQ-5, gallic acid]",strong intensity,7.5,1.28 ± 0.89 µg/mL,strong intensity,–,36,6.15 ± 0.38 µg/mL,–,strong intensity,–,–,–,–,–,38,38.1
